How the values were obtained:
barnyardgrass = test: Test A pre-/postemergence herbicide test; type: in vivo, Echinochloa crus-galli
Summary of the method: (§1)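 Seeds in loam–sand blend received preemergence directed soil spray; separately, plants 2–10 cm at one- to two-leaf stage received postemergence spray, both with test chemicals in non-phytotoxic solvent with surfactant. After ~10 days in greenhouse, injury rated visually against untreated controls, 0 (no effect) to 100 (complete control).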

giant foxtail = test: Test A pre-/postemergence herbicide test; type: in vivo, Setaria faberii
Summary of the method: as §1

pigweed = test: Test A pre-/postemergence herbicide test; type: in vivo, Amaranthus retroflexus
Summary of the method: as §1

corn = test: Test A pre-/postemergence herbicide test; type: in vivo, Zea mays; conditions: Postemergence
Summary of the method: as §1

rice = test: Test B flooded paddy test; type: in vivo, Oryza sativa; conditions: 500 g ai/ha, Flood; scale of 0 to 100 where 0 is no effect and 100 is complete control
Summary of the method: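 In-water application to pots flooded 3 cm deep, plants at 2-leaf stage. Held in greenhouse 13–15 days at constant flood depth. Scored 0–100 by eye against controls.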

blackgrass = test: Test C pre-/postemergence herbicide test; type: in vivo, Alopecurus myosuroides
Summary of the method: (§2)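 Pre-emergence: seeds sown in loam/sand blend and treated with compound in surfactant-containing solvent. Post-emergence: plants at 2–18 cm (1- to 4-leaf stage) in peat-based medium sprayed with the same formulation. Visual rating versus controls after 13–15 days in greenhouse, scale 0 (no effect) to 100 (complete control).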

foxtail, giant = test: Test C pre-/postemergence herbicide test; type: in vivo, Setaria faberii
Summary of the method: as §2

johnsongrass = test: Test C pre-/postemergence herbicide test; type: in vivo, Sorghum halepense
Summary of the method: as §2

nutsedge, yellow = test: Test C pre-/postemergence herbicide test; type: in vivo, Cyperus esculentus
Summary of the method: as §2

oilseed rape = test: Test C pre-/postemergence herbicide test; type: in vivo, Brassica napus
Summary of the method: as §2

velvetleaf = test: Test C pre-/postemergence herbicide test; type: in vivo, Abutilon theophrasti
Summary of the method: as §2

[1] = Postemergence, 125 g ai/ha, 0 to 100 scale, 0 is no effect, 100 is complete control
[2] = Postemergence, 500 g ai/ha, 0 to 100 scale (0 no effect, 100 complete control)
[3] = Preemergence, 125 g ai/ha, 0 to 100 scale where 0 is no effect and 100 is complete control
[4] = preemergence, 500 g ai/ha, 0 to 100 scale, 0 is no effect and 100 is complete control
[5] = Postemergence, 125 g ai/ha, visual rating on 0 to 100 scale (0 no effect, 100 complete control), approx. 10 days
[6] = 125 g ai/ha, 0 to 100 scale, 0 is no effect, 100 is complete control
[7] = 500 g ai/ha, 0 to 100 scale (0 no effect, 100 complete control)
[8] = Postemergence, 31 g ai/ha, scale 0 to 100 (0 no effect, 100 complete control)
[9] = Postemergence, 62 g ai/ha, scale 0 (no effect) to 100 (complete control)
[10] = Postemergence, 125 g ai/ha, scale 0 to 100 (0 no effect, 100 complete control)
[11] = Postemergence, 250 g ai/ha, scale 0 to 100 (0 no effect, 100 complete control)
[12] = Preemergence, 31 g ai/ha, scale 0 to 100, 0 is no effect and 100 is complete control
[13] = Preemergence, 62 g ai/ha, scale 0 to 100 (0 no effect, 100 complete control)
[14] = Preemergence, 125 g ai/ha, scale 0 to 100 (0 no effect, 100 complete control)

Structure (SMILES): O=C1NCC(c2cccc(Cl)c2)C1C(=O)Nc1cccc(F)c1F (racemic) [Compound 275]
- Plant response rating, Barnyardgrass (barnyardgrass; [1]): 90
- Plant response rating, Barnyardgrass (barnyardgrass; [2]): 90
- Plant response rating, Barnyardgrass (barnyardgrass; [3]): 90
- Plant response rating, Barnyardgrass (barnyardgrass; [4]): 90
- Plant response rating, Foxtail, Giant (giant foxtail; [1]): 90
- Plant response rating, Foxtail, Giant (giant foxtail; [2]): 90
- Plant response rating, Foxtail, Giant (giant foxtail; [3]): 90
- Plant response rating, Foxtail, Giant (giant foxtail; [4]): 90
- Plant response rating, Pigweed (pigweed; [5]): 30
- Plant response rating, Pigweed (pigweed; [2]): 40
- Plant response rating, Pigweed (pigweed; [3]): 20
- Plant response rating, Pigweed (pigweed; [4]): 30
- Plant response rating, Corn (corn; [6]): 40
- Plant response rating, Corn (corn; [7]): 90
- Plant response rating, Rice (rice): 0
- Plant response rating, Blackgrass (blackgrass; [8]): 0
- Plant response rating, Blackgrass (blackgrass; [9]): 0
- Plant response rating, Blackgrass (blackgrass; [10]): 5
- Plant response rating, Blackgrass (blackgrass; [11]): 40
- Blackgrass plant response rating (blackgrass; [12]): 45
- Blackgrass plant response rating (blackgrass; [13]): 60
- Plant response rating, Blackgrass (blackgrass; [14]): 70
- Plant response rating (scale of 0 to 100), Blackgrass (blackgrass; Preemergence, 250 g ai/ha): 80
- Plant response rating, Foxtail, Giant (foxtail, giant; [8]): 10
- Plant response rating, Foxtail, Giant (foxtail, giant; [9]): 75
- Plant response rating, Foxtail, Giant (foxtail, giant; [10]): 35
- Plant response rating, Foxtail, Giant (foxtail, giant; [11]): 90
- Foxtail, Giant plant response rating (foxtail, giant; [12]): 90
- Foxtail, Giant plant response rating (foxtail, giant; [13]): 95
- Plant response rating, Foxtail, Giant (foxtail, giant; [14]): 98
- Plant response rating (scale of 0 to 100), Foxtail, Giant (foxtail, giant; Preemergence, 250 g ai/ha): 100
- Plant response rating, Johnsongrass (johnsongrass; [8]): 0
- Plant response rating, Johnsongrass (johnsongrass; [9]): 0
- Plant response rating, Johnsongrass (johnsongrass; [10]): 0
- Plant response rating, Johnsongrass (johnsongrass; [11]): 25
- Johnsongrass plant response rating (johnsongrass; [12]): 10
- Johnsongrass plant response rating (johnsongrass; [13]): 50
- Plant response rating, Johnsongrass (johnsongrass; [14]): 75
- Plant response rating (scale of 0 to 100), Johnsongrass (johnsongrass; Preemergence, 250 g ai/ha): 85
- Plant response rating, Nutsedge, Yellow (nutsedge, yellow; [8]): 0
- Plant response rating, Nutsedge, Yellow (nutsedge, yellow; [9]): 0
- Plant response rating, Nutsedge, Yellow (nutsedge, yellow; [10]): 0
- Plant response rating, Nutsedge, Yellow (nutsedge, yellow; [11]): 20
- Nutsedge, Yellow plant response rating (nutsedge, yellow; [12]): 45
- Nutsedge, Yellow plant response rating (nutsedge, yellow; [13]): 25
- Plant response rating, Nutsedge, Yellow (nutsedge, yellow; [14]): 35
- Plant response rating (scale of 0 to 100), Nutsedge, Yellow (nutsedge, yellow; Preemergence, 250 g ai/ha): 100
- Plant response rating, Oilseed Rape (oilseed rape; [8]): 5
- Plant response rating, Oilseed Rape (oilseed rape; [9]): 5
- Plant response rating, Oilseed Rape (oilseed rape; [10]): 35
- Plant response rating, Oilseed Rape (oilseed rape; [11]): 45
- Oilseed Rape plant response rating (oilseed rape; [12]): 0
- Oilseed Rape plant response rating (oilseed rape; [13]): 50
- Plant response rating, Oilseed Rape (oilseed rape; [14]): 90
- Plant response rating (scale of 0 to 100), Oilseed Rape (oilseed rape; Preemergence, 250 g ai/ha): 90
- Plant response rating, Velvetleaf (velvetleaf; [8]): 5
- Plant response rating, Velvetleaf (velvetleaf; [9]): 10
- Plant response rating, Velvetleaf (velvetleaf; [10]): 10
- Plant response rating, Velvetleaf (velvetleaf; [11]): 50
- Velvetleaf plant response rating (velvetleaf; [12]): 0
- Velvetleaf plant response rating (velvetleaf; [13]): 0
- Plant response rating, Velvetleaf (velvetleaf; [14]): 25
- Plant response rating (scale of 0 to 100), Velvetleaf (velvetleaf; Preemergence, 250 g ai/ha): 30

Structure (SMILES): O=C1NCC(c2cc(F)cc(F)c2)C1C(=O)Nc1ccc(F)cc1F (racemic) [Compound 278]
- Plant response rating, Barnyardgrass (barnyardgrass; [1]): 80
- Plant response rating, Barnyardgrass (barnyardgrass; [2]): 90
- Plant response rating, Barnyardgrass (barnyardgrass; [3]): 80
- Plant response rating, Barnyardgrass (barnyardgrass; [4]): 90
- Plant response rating, Foxtail, Giant (giant foxtail; [1]): 80
- Plant response rating, Foxtail, Giant (giant foxtail; [2]): 80
- Plant response rating, Foxtail, Giant (giant foxtail; [3]): 90
- Plant response rating, Foxtail, Giant (giant foxtail; [4]): 90
- Plant response rating, Pigweed (pigweed; [5]): 0
- Plant response rating, Pigweed (pigweed; [2]): 10
- Plant response rating, Pigweed (pigweed; [3]): 0
- Plant response rating, Pigweed (pigweed; [4]): 0
- Plant response rating, Corn (corn; [6]): 0
- Plant response rating, Corn (corn; [7]): 0
- Plant response rating, Rice (rice): 0
- Plant response rating, Blackgrass (blackgrass; [8]): 0
- Plant response rating, Blackgrass (blackgrass; [9]): 0
- Plant response rating, Blackgrass (blackgrass; [10]): 0
- Plant response rating, Blackgrass (blackgrass; [11]): 0
- Blackgrass plant response rating (blackgrass; [12]): 0
- Blackgrass plant response rating (blackgrass; [13]): 0
- Plant response rating, Blackgrass (blackgrass; [14]): 0
- Plant response rating (scale of 0 to 100), Blackgrass (blackgrass; Preemergence, 250 g ai/ha): 0
- Plant response rating, Foxtail, Giant (foxtail, giant; [8]): 10
- Plant response rating, Foxtail, Giant (foxtail, giant; [9]): 10
- Plant response rating, Foxtail, Giant (foxtail, giant; [10]): 40
- Plant response rating, Foxtail, Giant (foxtail, giant; [11]): 75
- Foxtail, Giant plant response rating (foxtail, giant; [12]): 80
- Foxtail, Giant plant response rating (foxtail, giant; [13]): 90
- Plant response rating, Foxtail, Giant (foxtail, giant; [14]): 95
- Plant response rating (scale of 0 to 100), Foxtail, Giant (foxtail, giant; Preemergence, 250 g ai/ha): 100
- Plant response rating, Johnsongrass (johnsongrass; [8]): 0
- Plant response rating, Johnsongrass (johnsongrass; [9]): 0
- Plant response rating, Johnsongrass (johnsongrass; [10]): 0
- Plant response rating, Johnsongrass (johnsongrass; [11]): 0
- Johnsongrass plant response rating (johnsongrass; [12]): 0
- Johnsongrass plant response rating (johnsongrass; [13]): 0
- Plant response rating, Johnsongrass (johnsongrass; [14]): 0
- Plant response rating (scale of 0 to 100), Johnsongrass (johnsongrass; Preemergence, 250 g ai/ha): 0
- Plant response rating, Nutsedge, Yellow (nutsedge, yellow; [8]): 0
- Plant response rating, Nutsedge, Yellow (nutsedge, yellow; [9]): 0
- Plant response rating, Nutsedge, Yellow (nutsedge, yellow; [10]): 0
- Plant response rating, Nutsedge, Yellow (nutsedge, yellow; [11]): 15
- Nutsedge, Yellow plant response rating (nutsedge, yellow; [12]): 0
- Nutsedge, Yellow plant response rating (nutsedge, yellow; [13]): 0
- Plant response rating, Nutsedge, Yellow (nutsedge, yellow; [14]): 5
- Plant response rating (scale of 0 to 100), Nutsedge, Yellow (nutsedge, yellow; Preemergence, 250 g ai/ha): 5
- Plant response rating, Oilseed Rape (oilseed rape; [8]): 0
- Plant response rating, Oilseed Rape (oilseed rape; [9]): 0
- Plant response rating, Oilseed Rape (oilseed rape; [10]): 5
- Plant response rating, Oilseed Rape (oilseed rape; [11]): 0
- Oilseed Rape plant response rating (oilseed rape; [12]): 0
- Oilseed Rape plant response rating (oilseed rape; [13]): 0
- Plant response rating, Oilseed Rape (oilseed rape; [14]): 0
- Plant response rating (scale of 0 to 100), Oilseed Rape (oilseed rape; Preemergence, 250 g ai/ha): 5
- Plant response rating, Velvetleaf (velvetleaf; [8]): 0
- Plant response rating, Velvetleaf (velvetleaf; [9]): 0
- Plant response rating, Velvetleaf (velvetleaf; [10]): 10
- Plant response rating, Velvetleaf (velvetleaf; [11]): 20
- Velvetleaf plant response rating (velvetleaf; [12]): 0
- Velvetleaf plant response rating (velvetleaf; [13]): 0
- Plant response rating, Velvetleaf (velvetleaf; [14]): 0
- Plant response rating (scale of 0 to 100), Velvetleaf (velvetleaf; Preemergence, 250 g ai/ha): 0
